Laboratory results from ChEMBL document CHEMBL5584239, “Discovery of novel quinoline scaffold selective estrogen receptor degraders (SERDs) for treatment of ER positive breast cancer with enhanced antiproliferative bioactivity through immunogenic cell death (ICD) effects” (Eur J Med Chem, 2024).
Activity calls are given as the source filed them. No cut-off for these calls is given here.

Legend:
Ishikawa = test: Antiproliferative activity against human Ishikawa cells at 20 uM incubated for 3 days by MTT assay relative to control; format: functional; details: 72 h, time 3 day
MCF7 [1] = test: Antiproliferative activity against human MCF7 cells incubated for 5 days by MTT assay; format: functional, cell-based; details: MCF7, 120 h
MCF7 [2] = test: Induction of cell cycle arrest at G0/G1 phase in human MCF7 cells at 10 uM incubated for 24 hrs by PI/RNase staining based flow cytometry (reference value: 53.5 +/- 1.96 %); format: functional
MCF7 [3] = test: Induction of ROS production in human MCF7 cells incubated for 3 to 24 hrs by immunofluorescence analysis; format: functional, cell-based; details: time 3-24 hrs
[4] = Toxicity in nude mouse model xenografted with human MCF7 cells assessed as morphological change in spleen at 60 mg/kg, po administered daily via gavage for 30 days by H and E staining based analysis; format: organism-based; details: in vivo, 720 h, time 30 day
MCF7 [5] = test: Antitumor activity against human MCF7 cells xenografted in nude mouse model at 60 mg/kg, po administered daily via gavage for 30 days in presence of ribociclib; format: functional, organism-based; details: time 30.0 day
[6] = Toxicity in nude mouse model xenografted with human MCF7 cells assessed as morphological change in kidney at 60 mg/kg, po administered daily via gavage for 30 days by H and E staining based analysis; format: organism-based; details: in vivo, 720 h, time 30 day
MCF7 [7] = test: Induction of immunogenic cell death in human MCF7 cells assessed as CRT translocation at 10 uM by fluorescence microscopy; format: functional, cell-based
MCF7 [8] = test: Induction of endoplasmic reticulum stress effect in human MCF7 cells assessed as change in CHOP level at 10 uM incubated for 3 to 24 hrs by Western blot analysis; format: functional, cell-based; details: time 3-24 hrs
[9] = target: T1, Estrogen receptor (Homo sapiens) (UniProt P03372); test: Induction of estrogen receptor degradation in estradiol-stimulated human MCF7 cells assessed as decrease in PGR mRNA level incubated for 24 hrs by RT-qPCR analysis; format: cell-based; details: dose 1-10 µM
T1 sequence (whole entry): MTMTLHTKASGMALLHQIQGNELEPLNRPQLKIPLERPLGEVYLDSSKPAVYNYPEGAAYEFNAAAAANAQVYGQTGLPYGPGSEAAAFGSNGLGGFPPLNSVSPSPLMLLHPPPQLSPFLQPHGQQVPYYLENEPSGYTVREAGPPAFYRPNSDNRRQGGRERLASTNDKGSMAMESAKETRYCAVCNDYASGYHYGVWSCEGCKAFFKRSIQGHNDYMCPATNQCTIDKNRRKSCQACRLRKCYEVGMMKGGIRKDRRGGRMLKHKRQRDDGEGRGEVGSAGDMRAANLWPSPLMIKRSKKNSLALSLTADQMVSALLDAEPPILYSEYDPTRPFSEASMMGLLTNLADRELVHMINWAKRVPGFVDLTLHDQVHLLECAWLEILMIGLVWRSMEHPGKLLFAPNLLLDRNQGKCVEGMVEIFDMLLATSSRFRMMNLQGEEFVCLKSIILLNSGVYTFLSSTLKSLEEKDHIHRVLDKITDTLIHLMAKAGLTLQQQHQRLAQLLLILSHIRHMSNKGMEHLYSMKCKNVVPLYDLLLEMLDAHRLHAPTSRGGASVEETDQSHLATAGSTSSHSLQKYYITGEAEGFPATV

MCF7 [10] = test: Induction of immunogenic cell death in human MCF7 cells assessed as HMGB1 release from nucleus at 10 uM by Western blot analysis; format: functional, cell-based
MCF7 [11] = test: Induction of immunogenic cell death in human MCF7 cells assessed as HMGB1 release from nucleus at 10 uM by FITC staining based flow cytometry; format: functional
MCF7 [12] = test: Induction of endoplasmic reticulum stress effect in human MCF7 cells assessed as change in pEIF-2alpha level at 10 uM incubated for 3 to 24 hrs by Western blot analysis; format: functional, cell-based; details: time 3-24 hrs
MCF7 [13] = test: Induction of endoplasmic reticulum stress effect in human MCF7 cells assessed as change in GRP78 level at 10 uM incubated for 3 to 24 hrs by Western blot analysis; format: functional, cell-based; details: time 3-24 hrs
[14] = target: T1, Estrogen receptor (Homo sapiens); test: Induction of estrogen receptor degradation in estradiol-stimulated human MCF7 cells assessed as decrease in GREB1 mRNA level incubated for 24 hrs by RT-qPCR analysis; format: cell-based; details: dose 1-10 µM
[15] = Toxicity in nude mouse model xenografted with human MCF7 cells assessed as body weight loss at 60 mg/kg, po administered daily via gavage for 30 days; format: organism-based; details: in vivo, 720 h, time 30 day
MCF7 [16] = test: Antitumor activity against human MCF7 cells xenografted in nude mouse model assessed as reduction in ER level at 60 mg/kg, po administered daily via gavage for 30 days in presence of ribociclib by IHC analysis; format: functional, organism-based; details: time 30.0 day
[17] = Toxicity in nude mouse model xenografted with human MCF7 cells assessed as morphological change in heart at 60 mg/kg, po administered daily via gavage for 30 days by H and E staining based analysis; format: organism-based; details: in vivo, 720 h, time 30 day
MCF7 [18] = test: Induction of immunogenic cell death in human MCF7 cells assessed as CRT translocation at 10 uM by Western blot analysis; format: functional, cell-based
MCF7 [19] = test: Induction of immunogenic cell death in human MCF7 cells assessed as CRT translocation at 10 uM by FITC staining based flow cytometry; format: functional
MCF7 [20] = test: Synergistic antiproliferative activity against human MCF7 cells at 0.1 to 10000 nM incubated for 5 days in presence of Ribociclib by MTT assay; format: functional, cell-based; details: dose 0.1-10000 nM, time 5.0 day
MCF7 [21] = test: Induction of immunogenic cell death in human MCF7 cells assessed as HSP90 exposure at 10 uM by Western blot analysis; format: functional, cell-based
MCF7 [22] = test: Induction of endoplasmic reticulum stress effect in human MCF7 cells assessed as change in ATF4 level at 10 uM incubated for 3 to 24 hrs by Western blot analysis; format: functional, cell-based; details: time 3-24 hrs
MCF7 [23] = test: Antitumor activity against human MCF7 cells xenografted in nude mouse model assessed as reduction in Ki67 level at 60 mg/kg, po administered daily via gavage for 30 days in presence of ribociclib by IHC analysis; format: functional, organism-based; details: time 30.0 day
MCF7 [24] = test: Induction of endoplasmic reticulum stress effect in human MCF7 cells assessed as change in CHOP level at 10 uM incubated for 24 hrs by immunofluorescence based analysis; format: functional, cell-based
[25] = Toxicity in nude mouse model xenografted with human MCF7 cells assessed as morphological change in liver at 60 mg/kg, po administered daily via gavage for 30 days by H and E staining based analysis; format: organism-based; details: in vivo, 720 h, time 30 day
[26] = target: T1, Estrogen receptor (Homo sapiens); test: Induction of estrogen receptor degradation in human MCF7 cells incubated for 24 hrs by Western blot analysis; format: cell-based; details: dose 0.001-10 µM
MCF7 [27] = test: Induction of endoplasmic reticulum stress effect in human MCF7 cells assessed as change in calnexin level at 10 uM incubated for 24 hrs by immunofluorescence based analysis; format: functional, cell-based
MCF7 [28] = test: Antitumor activity against human MCF7 cells xenografted in nude mouse model assessed as reduction in PR level at 60 mg/kg, po administered daily via gavage for 30 days in presence of ribociclib by IHC analysis; format: functional, organism-based; details: time 30.0 day
MCF7 [29] = test: Induction of immunogenic cell death in human MCF7 cells assessed as ATP release […] at 10 uM; format: functional, cell-based
[30] = target: T1, Estrogen receptor (Homo sapiens); test: Induction of estrogen receptor degradation in MG-132-treated human MCF7 cells at 10 uM incubated for 4 to 6 hrs by Western blot analysis; format: cell-based; details: time 4-6 hrs
[31] = target: T1, Estrogen receptor (Homo sapiens); test: Induction of estrogen receptor degradation in human MCF7 cells expressing ERE-luciferase at 10 uM incubated for 24 hrs by luminescence based analysis; format: cell-based
[32] = target: T1, Estrogen receptor (Homo sapiens); test: Induction of estrogen receptor degradation in estradiol-stimulated human MCF7 cells assessed as decrease in TFF1 mRNA level incubated for 24 hrs by RT-qPCR analysis; format: cell-based; details: dose 1-10 µM
MCF7 [33] = test: Induction of endoplasmic reticulum stress effect in human MCF7 cells assessed as change in EIF-2alpha level at 10 uM incubated for 3 to 24 hrs by Western blot analysis; format: functional, cell-based; details: time 3-24 hrs
MCF7 [34] = test: Antitumor activity against human MCF7 cells xenografted in nude mouse model assessed as tumor growth inhibition at 60 mg/kg, po administered daily via gavage for 30 days; format: functional, organism-based; details: time 30.0 day
MCF7 [35] = test: Induction of ROS production in human MCF7 cells measured after 6 to 24 hrs by flow cytometry; format: functional, cell-based; details: time 6-24 hrs
Uterus = test: Effect on immature Sprague-Dawley rat uterus assessed as reduction in uterine wet weight at 60 mg/kg, po qd for 2 days by H and E staining based analysis; format: functional, organism-based; details: time 2.0 day
MCF7 [36] = test: Induction of immunogenic cell death in human MCF7 cells assessed as HMGB1 release from nucleus at 10 uM by fluorescence microscopy; format: functional, cell-based
MCF7 [37] = test: Induction of endoplasmic reticulum stress effect in human MCF7 cells assessed as change in calnexin level at 10 uM incubated for 3 to 24 hrs by Western blot analysis; format: functional, cell-based; details: time 3-24 hrs
[38] = target: T1, Estrogen receptor (Homo sapiens); test: Induction of estrogen receptor degradation in human MCF7 cells at 10 uM by fluorescence microscopy; format: cell-based

SMILES: CCc1ccccc1C(=O)c1cnc2cc(O)ccc2c1Oc1ccc(/C=C/C(=O)O)c(C)c1
- inhibition at 20 µM (Ishikawa): 13.4%
- IC50 (MCF7 [1]): 3570 nM

SMILES: CC/C(=C(\c1ccccc1)c1ccc(OCCN(C)C)cc1)c1ccccc1 [TAMOXIFEN]
- Activity (MCF7 [2]): 67.6%
- inhibition at 20 µM (Ishikawa): 86.5%
- Activity (MCF7 [3]): inactive
- IC50 (MCF7 [1]): 1560 nM

SMILES: Cc1cccc(C)c1C(=O)c1cnc2cc(O)ccc2c1Oc1ccc(/C=C/C(=O)O)cc1
- inhibition at 20 µM (Ishikawa): 23.1%
- IC50 (MCF7 [1]): 930 nM

SMILES: CCc1cc(/C=C/C(=O)O)ccc1Oc1c(C(=O)c2ccccc2CC)cnc2cc(O)ccc12
- Activity [4]: Non-Toxic
- Activity (MCF7 [5]): Active
- Activity [6]: Non-Toxic
- Activity (MCF7 [7]): Active
- Activity (MCF7 [8]): Active
- Activity [9]: Dose-Dependent Effect
- Activity (MCF7 [10]): Active
- Activity (MCF7 [11]): Active
- Activity (MCF7 [2]): 64%
- Activity (MCF7 [12]): Active
- inhibition at 20 µM (Ishikawa): 13.2%
- Activity (MCF7 [13]): Active
- Activity [14]: Dose-Dependent Effect
- Activity [15]: Non-Toxic
- Activity (MCF7 [16]): Active
- Activity [17]: Non-Toxic
- Activity (MCF7 [18]): Active
- Activity (MCF7 [19]): Active
- Activity (MCF7 [20]): Active
- Activity (MCF7 [21]): Active
- Activity (MCF7 [22]): Active
- Activity (MCF7 [23]): Active
- Activity (MCF7 [24]): Active
- Activity [25]: Non-Toxic
- Activity [26]: Dose-Dependent Effect
- Activity (MCF7 [27]): Active
- Activity (MCF7 [28]): Active
- Activity (MCF7 [29]): Active
- Activity [30]: inactive
- Activity [31]: Active
- Activity [32]: Dose-Dependent Effect
- Activity (MCF7 [33]): Active
- inhibition (MCF7 [34]): Active
- Activity (MCF7 [35]): inactive
- Activity (Uterus): inactive
- Activity (MCF7 [36]): Active
- Activity (MCF7 [37]): Active
- Activity (MCF7 [3]): inactive
- IC50 (MCF7 [1]): 510 nM
- Activity [38]: Active

SMILES: Cc1cc(C)cc(C(=O)c2cnc3cc(O)ccc3c2Oc2ccc(/C=C/C(=O)O)cc2)c1
- inhibition at 20 µM (Ishikawa): 30.9%
- IC50 (MCF7 [1]): 4800 nM

SMILES: O=C(O)/C=C/c1ccc(Oc2c(C(=O)c3ccc4occc4c3)cnc3cc(O)ccc23)cc1
- inhibition at 20 µM (Ishikawa): 13.3%
- IC50 (MCF7 [1]): 1470 nM

SMILES: COc1ccc(C(=O)c2cnc3cc(O)ccc3c2Oc2ccc(/C=C/C(=O)O)cc2)cc1
- inhibition at 20 µM (Ishikawa): 61.2%
- IC50 (MCF7 [1]): 3090 nM

SMILES: CCc1ccccc1C(=O)c1cnc2cc(O)ccc2c1Oc1cc(C)c(/C=C/C(=O)O)c(C)c1
- inhibition at 20 µM (Ishikawa): 17.3%
- IC50 (MCF7 [1]): 590 nM

SMILES: O=C(O)/C=C/c1ccc(Oc2c(C(=O)c3ccc(C(F)(F)F)cc3)cnc3cc(O)ccc23)cc1
- inhibition at 20 µM (Ishikawa): -4.35%
- IC50 (MCF7 [1]): 690 nM

SMILES: Cc1cc(Cl)ccc1C(=O)c1cnc2cc(O)ccc2c1Oc1ccc(/C=C/C(=O)O)cc1
- inhibition at 20 µM (Ishikawa): 24.9%
- IC50 (MCF7 [1]): 370 nM

SMILES: O=C(O)/C=C/c1ccc(Oc2c(C(=O)c3ccc(F)cc3)cnc3cc(O)ccc23)cc1
- inhibition at 20 µM (Ishikawa): 12.5%
- IC50 (MCF7 [1]): 4870 nM

SMILES: Cc1cc(F)ccc1C(=O)c1cnc2cc(O)ccc2c1Oc1ccc(/C=C/C(=O)O)cc1
- inhibition at 20 µM (Ishikawa): 15.1%
- IC50 (MCF7 [1]): 420 nM

SMILES: CCc1ccccc1C(=O)c1cnc2cc(O)ccc2c1Oc1c(C)cc(/C=C/C(=O)O)cc1C
- inhibition at 20 µM (Ishikawa): 11.5%
